From ChEMBL document CHEMBL3112505, “Discovery of novel indazole derivatives as dual angiotensin II antagonists and partial PPARγ agonists” (Bioorg Med Chem Lett, 2014) come the findings set out here.

SMILES strings stand for the structures.

For assay [1], the target named is T1, Type-1 angiotensin II receptor (Homo sapiens, UniProt P30556).
T1 sequence (P30556 whole entry): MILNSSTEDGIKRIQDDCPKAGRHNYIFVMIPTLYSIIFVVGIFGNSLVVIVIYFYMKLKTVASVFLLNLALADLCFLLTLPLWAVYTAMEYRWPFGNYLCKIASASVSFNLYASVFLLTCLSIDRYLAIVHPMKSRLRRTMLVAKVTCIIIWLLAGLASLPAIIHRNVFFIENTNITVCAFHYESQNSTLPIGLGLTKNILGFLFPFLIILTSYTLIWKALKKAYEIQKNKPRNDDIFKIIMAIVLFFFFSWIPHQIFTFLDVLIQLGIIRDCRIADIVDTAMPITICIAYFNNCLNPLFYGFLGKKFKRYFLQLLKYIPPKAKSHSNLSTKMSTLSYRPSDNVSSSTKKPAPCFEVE
Nature of the assay: Antagonist activity at human AT1 receptor expressed in CHO cells measured after overnight incubation by luciferase reporter gene assay. Format: cell-based.

For assay [2], the target named is T2, Peroxisome proliferator-activated receptor delta (Mus musculus, UniProt P35396).
T2 sequence (P35396 whole entry): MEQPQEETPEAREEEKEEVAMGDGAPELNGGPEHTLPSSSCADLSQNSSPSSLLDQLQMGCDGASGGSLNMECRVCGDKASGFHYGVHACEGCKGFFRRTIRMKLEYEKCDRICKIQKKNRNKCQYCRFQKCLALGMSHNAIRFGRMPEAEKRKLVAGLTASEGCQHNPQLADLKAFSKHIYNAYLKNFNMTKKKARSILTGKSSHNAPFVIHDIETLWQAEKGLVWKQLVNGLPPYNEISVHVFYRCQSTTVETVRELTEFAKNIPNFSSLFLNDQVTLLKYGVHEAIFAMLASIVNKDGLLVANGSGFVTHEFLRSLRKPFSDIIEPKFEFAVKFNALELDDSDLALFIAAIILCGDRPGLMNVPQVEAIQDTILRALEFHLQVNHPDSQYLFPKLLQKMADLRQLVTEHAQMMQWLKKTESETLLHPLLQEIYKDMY
Nature of the assay: Agonist activity at mouse PPARdelta expressed in CV-1 cells by reporter gene assay. It counts as cell-based.

Assay [3] addresses T3, Peroxisome proliferator-activated receptor alpha (Mus musculus, UniProt P23204).
T3 sequence (P23204 whole entry): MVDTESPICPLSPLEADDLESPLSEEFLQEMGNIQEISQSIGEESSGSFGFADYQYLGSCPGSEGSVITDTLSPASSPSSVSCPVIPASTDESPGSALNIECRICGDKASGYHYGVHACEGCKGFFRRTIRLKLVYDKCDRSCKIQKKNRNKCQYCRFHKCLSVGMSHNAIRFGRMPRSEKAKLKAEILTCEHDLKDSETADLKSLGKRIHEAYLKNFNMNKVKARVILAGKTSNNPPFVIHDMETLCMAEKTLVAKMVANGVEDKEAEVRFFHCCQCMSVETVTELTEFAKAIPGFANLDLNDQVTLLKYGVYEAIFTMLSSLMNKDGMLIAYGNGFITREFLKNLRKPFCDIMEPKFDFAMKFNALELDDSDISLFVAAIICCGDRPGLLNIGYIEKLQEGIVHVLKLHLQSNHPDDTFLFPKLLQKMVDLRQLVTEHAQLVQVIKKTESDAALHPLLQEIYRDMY
Nature of the assay: Agonist activity at mouse PPARalpha expressed in CV-1 cells by reporter gene assay. Format: cell-based.

Assay [4] addresses T4, Peroxisome proliferator-activated receptor gamma (Mus musculus, UniProt P37238).
T4 sequence (P37238 whole entry): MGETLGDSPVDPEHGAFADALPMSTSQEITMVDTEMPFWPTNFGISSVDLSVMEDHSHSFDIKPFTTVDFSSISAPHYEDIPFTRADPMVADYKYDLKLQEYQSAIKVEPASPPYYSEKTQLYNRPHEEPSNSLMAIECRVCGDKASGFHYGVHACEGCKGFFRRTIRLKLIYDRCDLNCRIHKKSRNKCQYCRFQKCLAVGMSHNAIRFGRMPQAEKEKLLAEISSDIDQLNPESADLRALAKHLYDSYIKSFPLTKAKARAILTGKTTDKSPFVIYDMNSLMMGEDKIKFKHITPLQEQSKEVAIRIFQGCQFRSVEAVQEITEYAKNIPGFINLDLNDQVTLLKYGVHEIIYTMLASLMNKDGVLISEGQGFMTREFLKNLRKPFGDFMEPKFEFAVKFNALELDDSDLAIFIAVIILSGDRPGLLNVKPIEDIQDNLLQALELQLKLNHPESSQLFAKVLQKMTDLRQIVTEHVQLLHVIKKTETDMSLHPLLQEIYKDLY
Nature of the assay: Agonist activity at mouse PPARgamma expressed in CV-1 cells by reporter gene assay. Format: cell-based.

Assay [5] has as its target T5, Peroxisome proliferator-activated receptor gamma (Mus musculus) (UniProt P37238).
T5 sequence (whole entry): T4 sequence (P37238 whole entry)
Nature of the assay: Agonist activity at mouse PPARgamma expressed in CV-1 cells by reporter gene assay relative to rosiglitazone. It counts as cell-based.

Assay [6] concerns the target T6, Peroxisome proliferator-activated receptor gamma (Homo sapiens, UniProt P37231).
T6 sequence (P37231 whole entry): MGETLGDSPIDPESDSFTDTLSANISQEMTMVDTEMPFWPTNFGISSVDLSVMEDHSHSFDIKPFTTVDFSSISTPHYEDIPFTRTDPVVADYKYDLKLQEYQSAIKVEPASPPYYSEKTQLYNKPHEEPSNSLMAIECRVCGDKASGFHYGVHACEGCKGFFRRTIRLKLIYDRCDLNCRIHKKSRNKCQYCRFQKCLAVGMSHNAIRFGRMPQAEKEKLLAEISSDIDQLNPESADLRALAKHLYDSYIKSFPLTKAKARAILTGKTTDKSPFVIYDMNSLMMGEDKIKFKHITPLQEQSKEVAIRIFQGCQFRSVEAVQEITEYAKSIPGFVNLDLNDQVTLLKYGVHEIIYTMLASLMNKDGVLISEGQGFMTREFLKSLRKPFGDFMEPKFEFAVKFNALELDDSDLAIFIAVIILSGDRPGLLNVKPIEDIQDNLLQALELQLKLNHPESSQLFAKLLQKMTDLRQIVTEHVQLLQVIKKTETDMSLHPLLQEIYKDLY
Nature of the assay: Agonist activity at human PPARgamma expressed in CV-1 cells by reporter gene assay. It counts as cell-based.

Assay [7] addresses T7, Peroxisome proliferator-activated receptor alpha (Mus musculus) (UniProt P23204).
T7 sequence (whole entry): T3 sequence (P23204 whole entry)
Nature of the assay: Agonist activity at mouse PPARalpha expressed in CV-1 cells by reporter gene assay relative to rosiglitazone.

Assay [8] has as its target T8, Peroxisome proliferator-activated receptor gamma (Homo sapiens) (UniProt P37231).
T8 sequence (whole entry): T6 sequence (P37231 whole entry)
Nature of the assay: Partial agonist activity at human PPARgamma expressed in CV-1 cells by reporter gene assay relative to rosiglitazone. It counts as cell-based.

For assay [9], the target named is T5, Peroxisome proliferator-activated receptor gamma (Mus musculus). Nature of the assay: Partial agonist activity at mouse PPARgamma expressed in CV-1 cells by reporter gene assay relative to rosiglitazone. It counts as cell-based.
Assay [10] concerns the target T4, Peroxisome proliferator-activated receptor gamma. Nature of the assay: Partial agonist activity at mouse PPARgamma expressed in CV-1 cells by reporter gene assay. It counts as cell-based.
For assay [11], the target named is T6, Peroxisome proliferator-activated receptor gamma. Nature of the assay: Partial agonist activity at human PPARgamma expressed in CV-1 cells by reporter gene assay. Format: cell-based.

Regarding `CCCc1nc2ccc(C(=O)NC(CC)c3ccccc3)cc2n1Cc1ccc(-c2ccccc2C(=O)O)cc1` (centres undefined), the IC50 in [1] was 0.288 µM.
Turning to `CCCc1nn2ccc(-c3nc4ccccc4n3CCC)cc2c1Cc1ccc(-c2ccccc2C(=O)O)cc1`, the EC50 is more than 10 µM in [2], more than 10 µM in [3], 0.38 µM in assay [4] and 0.28 µM in [6]. For the same molecule, the IC50 in assay [1] amounted to 0.085 µM. Further, the max activation in assay [5] is 27%.
In the case of `CCC(NC(=O)c1ccc2c(c1)c(C)c(C)n2Cc1ccc(-c2ccccc2C(=O)O)cc1)c1ccccc1` (centres undefined), in assay [1], the IC50 is more than 10 µM.
On to `CCCc1c(Cc2ccc(-c3ccccc3C(=O)O)cc2)c2cc(C(=O)NC(CC)c3ccccc3)ccc2n1OC` (centres undefined), for which the EC50 in [2] was more than 10 µM; in assay [3], more than 10 µM; in assay [4] it was 0.2 µM; in assay [6], 0.09 µM. This molecule gave an IC50 in [1] of more than 10 µM. Besides, in assay [5], the max activation was 17%.
As to `CCCc1[nH]c2ccc(C(=O)NC(CC)c3ccccc3)cc2c1Cc1ccc(-c2ccccc2C(=O)O)cc1` (centres undefined), the results for the EC50 in assay [3], in assay [4] and in assay [6] were more than 10 µM, 0.51 µM and 0.35 µM, respectively. The same molecule had an IC50 in assay [1] of more than 10 µM. The same molecule came in with a max activation in assay [5] of 24%.
Consider `CCCc1nn2ccc(C(=O)NC(CC)c3ccccc3)cc2c1Cc1ccc(-c2ccccc2C(=O)O)cc1` (centres undefined), for which the EC50 in assay [2] was more than 10 µM; in assay [3], more than 10 µM; in assay [4], 1.02 µM; in [6], 0.39 µM. Besides, the IC50 in assay [1] turned out to be 1.69 µM. The same molecule showed a max activation in [5] of 32%.
With `CCCc1nn2ccc(-c3nc4ccccc4n3CCC)cc2c1Cc1ccc(-c2ccccc2-c2nnn[nH]2)cc1`, the EC50 is more than 10 µM in assay [2], more than 10 µM in assay [3], 0.13 µM in assay [4] and 0.08 µM in [6]. Moreover, in assay [1], half-maximal inhibition (IC50) was put at 0.023 µM.
In the case of `CCCc1nn2ccc(-c3nc4ccccc4n3CCC)cc2c1Cc1ccc(-c2ccccc2-c2nn[nH]n2)cc1`, in [5], the max activation came out at 60%.
In the case of `CCCc1nc2cc(C(=O)NC(CC)c3ccccc3)ccc2n1Cc1ccc(-c2ccccc2C(=O)O)cc1` (centres undefined), the IC50 in assay [1] was determined as 0.128 µM. This molecule also had an EC50 in assay [6] of 2.65 µM.
Regarding `CCCc1c(Cc2ccc(-c3ccccc3C(=O)O)cc2)c2ccc(C(=O)NC(CC)c3ccccc3)cc2n1C` (centres undefined), the max activation worked out at 90% in [7] and 42% in assay [5]. The EC50 in [3] came to 0.17 µM; in assay [4] it was 0.003 µM; in assay [6] it was 0.002 µM. The IC50 in assay [1] is more than 10 µM.
`CCCCn1c(-c2ccc3nn(CCC)c(Cc4ccc(-c5ccccc5C(=O)O)cc4)c3c2)nc2ccccc21`: the 50% effective concentration (EC50) in [2] was more than 10 µM; in assay [3], more than 10 µM; in assay [4], 1.39 µM; in assay [6], 0.64 µM. Besides, in assay [1], the IC50 came out at 0.06 µM. The molecule further gave a max activation in assay [5] of 37%.
`CCCc1nn2ccc(C(=O)NC(CC)c3ccccc3)cc2c1Cc1ccc(-c2ccccc2-c2nn[nH]n2)cc1` (centres undefined) registered a max activation in [5] of 9%.
With `CCCn1nc2ccc(C(=O)NC(CC)c3ccccc3)cc2c1Cc1ccc(-c2ccccc2C(=O)O)cc1` (centres undefined), the max activation in assay [8] amounted to 24%; in assay [9], 19%. In addition, the EC50 in [2] is more than 10 µM; in assay [3] it was more than 10 µM; in assay [10] it was 0.25 µM; in [11], 0.13 µM. Besides, in assay [1], the IC50 was found to be 1 µM.
Turning to `CCCc1[nH]c2cc(C(=O)NC(CC)c3ccccc3)ccc2c1Cc1ccc(-c2ccccc2C(=O)O)cc1` (centres undefined), the max activation in assay [7] was determined as 71%; in assay [5], 36%. Moreover, the figures for the EC50 in assay [3], in [4] and in assay [6] were 0.79 µM, 0.009 µM and 0.006 µM, respectively. In assay [1], this molecule yielded an IC50 of more than 10 µM.
